Measurements: US7776566B2, “Method for producing purine nucleoside by fermentation” (priority 1997, dated 2010)

Assays:
Type in all cases: biochemical, E. coli
[1] = target: T1, PRPP synthetase (Prs) D128A (Escherichia coli, UniProt P0A717, D129A); experiment: PRPP synthetase activity of crude enzyme extracts and inhibition by ADP (mutant prsDA); conditions: mutant type
T1 construct: made in house; host or cells: E. coli JM109 (crude enzyme extract)
Experimental: A prs fragment was excised from the plasmid carrying the prs of about 1 kb cloned in Section 1) by SalI and SphI digestion, and inserted between the SalI and SphI sites of the multi-cloning site of a plasmid for introducing mutation, pKF19k (Takara Shuzo) to obtain the target clone (pKFprs). […] It is also described that the enzyme whose Asp (D) at position 128 is mutated to Ala (A) is partially desensitized. Therefore, the following synthetic DNA primer was prepared for gene substitution realizing mutation of Asp (D) at position 128 PRPP synthetase (Prs) to Ala (A), and pKFprs was subjected to site-directed mutagenesis according to the protocol of Site-directed Mutagenesis System Mutan-Super Express Km (Takara Shuzo) to introduce a site-directed mutation into the pKFprs. […]
Recombinant bacteria obtained by transforming E. coli JM109 cells with the above four plasmids were cultured in LB liquid medium for eight hours, and collected, and crude enzyme extracts were prepared from them. The PRPP synthetase activity of the extracts and degrees of inhibition by ADP were measured according to the method of K. F. Jensen et al. (Analytical Biochemistry, 98, 254-263 (1979)) which was partially modified. Specifically, [a-^32P]ATP was used as the substrate and [^32P]AMP produced by the reaction was measured.

[2] = target: T2, PRPP amidotransferase (PurF) K326Q + P410W (Escherichia coli, UniProt P0AG16, K327Q/P411W); experiment: PRPP amidotransferase activity of crude enzyme extracts and inhibition by AMP and GMP (mutant purF, pKFpurFKQPW); conditions: JM109/pKFpurFKQPW crude extract, activity with None 0.18
T2 construct: made in house; host or cells: E. coli JM109 (crude enzyme extract)
T2 sequence (P0AG16 2-505 K327Q/P411W): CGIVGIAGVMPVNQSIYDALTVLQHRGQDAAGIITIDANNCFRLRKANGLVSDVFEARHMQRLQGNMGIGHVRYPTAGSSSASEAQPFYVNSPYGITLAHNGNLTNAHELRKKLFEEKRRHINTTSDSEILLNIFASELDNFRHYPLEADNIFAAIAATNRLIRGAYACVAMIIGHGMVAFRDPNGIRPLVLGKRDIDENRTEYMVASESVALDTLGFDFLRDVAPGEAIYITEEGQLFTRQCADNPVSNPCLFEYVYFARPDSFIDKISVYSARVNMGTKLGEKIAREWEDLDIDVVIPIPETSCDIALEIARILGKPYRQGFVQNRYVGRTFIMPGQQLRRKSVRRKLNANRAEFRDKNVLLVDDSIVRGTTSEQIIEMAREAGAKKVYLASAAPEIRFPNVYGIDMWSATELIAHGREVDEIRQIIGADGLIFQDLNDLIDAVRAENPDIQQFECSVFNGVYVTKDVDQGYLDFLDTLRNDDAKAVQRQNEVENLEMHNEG
Experimental: (§1) A purF fragment was excised from the plasmid carrying the purF of about 1530 bp cloned into pCRTMII vector (Invitrogen) in Section 1) by digestion with PstI and HindIII, and inserted between the PstI and HindIII sites of the multi-cloning site of a plasmid for introducing mutation, pKF18 (Takara Shuzo) to obtain the target clone (pKFpurF). […] Therefore, the following synthetic DNA primers were prepared for gene substitution realizing mutations of Lys (K) at position 326 and Pro (P) at position 410 of PRPP amidotransferase (PurF) to Gln (Q) and Trp (W), respectively, and pKFpurF was subjected to site-directed mutagenesis according to the protocol of Site-directed Mutagenesis System Mutan-Super Express Km (Takara Shuzo) to introduce a site-directed mutation into the pKFpurF.
(§2) After the mutagenesis, 6 clones were randomly picked up from each of the resulting transformants, and plasmids were prepared from them. […]
(§3) Recombinant bacteria obtained by transforming E. coli JM109 cells with the above plasmids were cultured in LB liquid medium for eight hours, and collected, and crude enzyme extracts were prepared from them. The PRPP amidotransferase activity of the extracts and degrees of inhibition by AMP and GMP were measured according to the method of L. J. Messenger (J. Biol. Chem., 254, 3382 (1979)).

[3] = target: T3, PRPP amidotransferase (PurF) K326Q (Escherichia coli, UniProt P0AG16, K327Q); experiment: PRPP amidotransferase activity of crude enzyme extracts and inhibition by AMP and GMP (mutant purF, pKFpurFKQ); conditions: JM109/pKFpurFKQ crude extract, activity with None 0.34
T3 construct: made in house; host or cells: E. coli JM109 (crude enzyme extract)
T3 sequence (P0AG16 2-505 K327Q): as the sequence (P0AG16 2-505 K327Q/P411W) above, with W410P counted along it
Experimental: as §1, §2, §3

[4] = target: T4, PRPP amidotransferase (PurF), wild type (Escherichia coli, UniProt P0AG16); experiment: PRPP amidotransferase activity of crude enzyme extracts and inhibition by AMP and GMP (wild type purF, pKFpurF); conditions: JM109/pKFpurF crude extract, activity with None 0.68
T4 construct: made in house; host or cells: E. coli JM109 (crude enzyme extract)
T4 sequence (P0AG16 2-505): as the sequence (P0AG16 2-505 K327Q/P411W) above, with Q326K, W410P counted along it
Experimental: as §3

With `Nc1ncnc2c1ncn2[C@@H]1O[C@H](COP(=O)(O)OP(=O)(O)O)[C@@H](O)[C@H]1O` [ADP, adenosine diphosphate] the “PRPP synthetase (Prs) specific activity, 5 mM ADP” value ([1]; JM109/pSTVprsDA, medium copy, activity with None 10.6) was 2.7 nmole/min/mg crude enzyme extract and the “PRPP synthetase (Prs) specific activity, 5 mM ADP” value ([1]; JM109/pUCprsDA, high copy, activity with None 80.8) was 20.2 nmole/min/mg crude enzyme extract.
`Nc1ncnc2c1ncn2[C@@H]1O[C@H](COP(=O)(O)O)[C@@H](O)[C@H]1O` [AMP, adenosine monophosphate] was tested, and the “PRPP amidotransferase activity, 10 mM AMP” value ([2]; 10 mM AMP) was 0.16 µmol/min/mg, the “PRPP amidotransferase activity, 10 mM AMP” value ([3]; 10 mM AMP) was 0.32 µmol/min/mg and the “PRPP amidotransferase activity, 10 mM AMP” value ([4]; 10 mM AMP) was 0.48 µmol/min/mg.
With `Nc1nc2c(ncn2[C@@H]2O[C@H](COP(=O)(O)O)[C@@H](O)[C@H]2O)c(=O)[nH]1` [GMP, guanosine monophosphate] the “PRPP amidotransferase activity, 10 mM GMP” value ([2]; 10 mM GMP) was 0.17 µmol/min/mg, the “PRPP amidotransferase activity, 10 mM GMP” value ([3]; 10 mM GMP) was 0.33 µmol/min/mg and the “PRPP amidotransferase activity, 10 mM GMP” value ([4]; 10 mM GMP) was 0.10 µmol/min/mg.
